Reference: PubChem BioAssay (NCI)
“And” between values parts separate entries of the source, which are not always exact repeats. Identical values can stand only once.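 Protocol summary: plate cells (96-well), add compound at 5 concentrations, incubate 48 h, interpolate endpoints linearly. GI50 = concentration required for 50% inhibition of growth. At the TGI there is no net growth.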

Legend:
Assay in all cases: NCI-60 cell line screen, 48 h
HT29 colon = tested on: HT29 colon
ACHN renal = tested on: ACHN renal
MALME-3M melanoma = tested on: MALME-3M melanoma
NCI-H226 lung = tested on: NCI-H226 lung
TK-10 renal = tested on: TK-10 renal
UACC-257 melanoma = tested on: UACC-257 melanoma
786-0 renal = tested on: 786-0 renal
KM12 colon = tested on: KM12 colon
SNB-75 CNS = tested on: SNB-75 CNS
A549 NSCLC = tested on: A549 NSCLC

Structure (SMILES) | GI50 (HT29 colon) | TGI (HT29 colon) [µM] | GI50 (ACHN renal) [µM] | TGI (ACHN renal) [µM] | GI50 (MALME-3M melanoma) | TGI (MALME-3M melanoma) [µM] | GI50 (NCI-H226 lung) [µM] | TGI (NCI-H226 lung) [µM] | GI50 (TK-10 renal) | TGI (TK-10 renal) [µM] | GI50 (UACC-257 melanoma) [µM] | TGI (UACC-257 melanoma) [µM] | GI50 (786-0 renal) [µM] | TGI (786-0 renal) [µM] | GI50 (KM12 colon) [µM] | TGI (KM12 colon) [µM] | GI50 (SNB-75 CNS) [µM] | TGI (SNB-75 CNS) [µM] | GI50 (A549 NSCLC) [µM] | TGI (A549 NSCLC) [µM]
COc1cc(OC)cc(N(CCNC(C)C)c2ccc3ncc(-c4cnn(C)c4)nc3c2)c1 | 3.72 µM | 15.7 | 2.18 | 8.12 | 6.48 µM | 21.5 | 4.53 | 23 | 2.81 µM | 12.1 | 9.49 | 23.4 | 2.9 | 13.6 | 7.53 | 21.8 | 0.523 | 4.2 | 5.33 | 19.1
Cn1cc(C2=C(c3cn(CCCCN)c4ccccc34)C(=O)NC2=O)c2ccccc21 | > 25 µM | > 25 | > 25 | > 25 | > 25 µM | > 25 | > 25 | > 25 | > 25 µM | > 25 | > 25 | > 25 | > 25 | > 25 | > 25 | > 25 | > 25 | > 25 | > 25 | > 25
CC(C)(C)C(=O)c1c(C(F)(F)F)n([O-])c2ccccc2[n+]1=O | 0.368 µM | – | 0.272 | 0.743 | 0.973 µM | 2.34 | 0.84 | 2.48 | 0.896 µM | 2.18 | 1.46 | 5.57 | 0.729 | 2.46 | 0.905 | 2.4 | 0.46 | 2.05 | 0.485 | 1.26
COc1ccc(S(=O)(=O)N2CC(C)(C)CN(S(=O)(=O)c3ccc(OC)cc3)C2C(=O)NO)cc1 | > 20 µM | > 20 | > 20 | > 20 | 5.93 µM | > 20 | > 17.1 | > 20 | 19.5 µM | > 20 | > 19.1 | > 20 | > 20 | > 20 | > 20 | > 20 | > 20 | > 20 | > 20 | > 20
[Cl-].[O-]/N=C(\c1ccccc1)c1ccccn1.[O-]/N=C(\c1ccccc1)c1ccccn1.[O-]/N=C(\c1ccccc1)c1ccccn1.[Sm+3] | 44 µM | > 100 | 29.3 | > 100 | 24.6 µM | 88.6 | 24.1 | 62.5 | 24.5 µM | > 100 | 23.8 | 73.6 | 24.1 | 65.5 | 17.6 | > 100 | 4.49 | 31.3 | 35.8 | > 100
CNC(=O)c1ccc(N2CCN(Cc3ccc4nc(C)c(=O)[nH]c4c3F)CC2)c(F)n1 | > 100 µM | > 100 | > 100 | > 100 | > 100 µM | > 100 | 44.9 | > 100 | 72.3 µM | > 100 | > 100 | > 100 | 47.4 | > 100 | > 100 | > 100 | 16.4 | 63.8 | > 100 | > 100
CCc1cc(Cc2cc(Cl)c(NC(=O)C(=O)C3NC(=O)NC3=O)c(CC)c2)cc(Cl)c1NC(=O)C(=O)C1NC(=O)NC1=O (configuration not stated) | – | 54 | – | > 100 | – | > 100 | – | > 100 | – | > 100 | – | > 100 | – | > 100 | – | > 100 | – | 90.7 | – | > 100
CC(C)=CCc1c(OC(=O)c2c(C)cc(O)cc2O)cc(CO)c(CO)c1O | – | 42.6 | – | 37.2 | – | 45.4 | – | > 100 | – | 77.9 | – | > 100 | – | > 100 | – | 30.6 | – | 40.7 | – | 62.2
CN1CCCC2(CCCc3ccccc32)C1 (configuration not stated) | – | > 100 | – | > 100 | – | > 100 | – | > 100 | – | > 100 | – | > 100 | – | > 100 | – | > 100 | – | > 100 | – | > 100
Cc1cc2c(ccc3c(C)cc(=O)oc32)o1 | – | > 100 | – | > 100 | – | > 100 | – | > 100 | – | > 100 | – | > 100 | – | > 100 | – | > 100 | – | > 100 | – | > 100
C#Cc1cccc(N2C(=O)CCC2=O)c1 | – | 34.2 | – | 30.6 | – | 28.2 | – | 35 | – | 29.9 | – | 29.9 | – | 40.5 | – | 19.5 | – | 26.8 | – | 42.7
O=C(CC(c1ccccc1)c1c(O)c2ccccc2oc1=O)c1ccccc1 (configuration not stated) | – | > 100 | – | > 100 | – | > 100 | – | > 100 | – | > 100 | – | > 100 | – | > 100 | – | > 100 | – | > 100 | – | > 100
Nc1ccc(C2=NN(c3ccccc3)C(c3ccc(Cl)cc3)C2)cc1 (configuration not stated) | 1.96 µM | 4.49 | 1.8 | 3.57 | 16.2 µM | 43.8 | 2.13 | 6.38 | 2.13 µM | 6.16 | 3.13 | 11.2 | 2.03 | 4.22 | 1.68 | 3.11 | 3.76 | 16.2 | 2.45 | 7.98
C=C1C(=O)O[C@@H]2C[C@@H](C)[C@@H]3C=CC(=O)[C@@]3(C)[C@@H](OC(=O)CC(=O)O[C@H]3[C@@H]4C(=C)C(=O)O[C@@H]4C[C@@H](C)[C@@H]4C=CC(=O)[C@]43C)[C@H]12 | – | 0.223 | – | 0.189 | – | 0.0368 | – | 0.3 | – | 0.47 | – | 0.0812 | – | 0.0355 | – | 0.16 | – | 1.54 | – | 2.46
O=c1c(Oc2ccc(F)cc2F)cc2cnc(NC3CCOCC3)nc2n1CCCO | > 25 µM | > 25 | > 25 | > 25 | > 25 µM | > 25 | > 25 | > 25 | > 25 µM | > 25 | > 25 | > 25 | > 25 | > 25 | > 25 | > 25 | 24.4 | > 25 | > 25 | > 25
COc1cc(C#Cc2ccc(=O)oc2C#Cc2ccccc2)cc(OC)c1OC | 2.44 µM | 6.6 | 2.13 | 4.23 | 2.99 µM | 7.21 | 2.59 | 7.41 | 4.57 µM | 13 | 6.81 | 15.6 | 3.39 | 12.2 | 15.1 | 44.8 | 2.7 | 7.62 | 10.3 | 43.9
CC(=O)O[C@H]1CC[C@@]2(C)C(=CC[C@H]3[C@@H]4CC[C@H](c5cc(C(F)(F)F)n(C(C)=O)n5)[C@@]4(C)CC[C@@H]32)C1 | – | 17.4 | – | 20.2 | – | > 52.8 | – | 20.8 | – | 14.9 | – | 13.9 | – | 17.7 | – | 20.9 | – | 20.8 | – | 20.5
S=C(Nc1ccc(Br)cc1)Nc1ccc(Br)cc1 | 7.22 µM | > 100 | 4.25 | > 100 | 11.7 µM | > 100 | > 100 | > 100 | 5.38 µM | > 100 | 7.86 | > 100 | 38.5 | > 100 | 3.63 | > 100 | 98.7 | > 100 | 5.8 | > 100
COc1ccc2c(CN3CCCCC3CO)cc3cc(OC)c(OC)cc3c2c1 (configuration not stated) | – | 11.4 | – | 31.1 | – | 16.9 | – | 16.7 | – | 27.5 | – | 13.7 | – | 17.3 | – | 16.2 | – | 22.1 | – | 14.2
O=C1c2ccccc2C(Br)(Br)c2ccccc21 | – | > 100 | – | > 31.6 | – | > 31.6 | – | > 31.6 | – | > 100 | – | > 100 | – | > 31.6 | – | > 100 | – | > 31.6 | – | > 31.6
Cc1ccc(S(=O)(=O)N/N=C(\c2nc3ccc(Cl)cc3[nH]c2=O)C(O)c2cccc([N+](=O)[O-])c2)cc1 (configuration not stated) | – | > 100 | – | > 100 | – | > 100 | – | > 100 | – | > 100 | – | > 100 | – | > 100 | – | > 100 | – | > 100 | – | > 100
COc1ccc(C(=O)/C=C/c2ccc(C)cc2)cc1OC | 3.93 µM | 15.3 | 14.2 | 28.1 | 15.9 µM | 36 | 13.5 | 31.5 | 16.4 µM | 37.7 | 16.2 | 30.3 | 15.4 | 28.7 | 5.68 | 19 | 8.93 | 21.3 | 11.2 | 26
CN(C)CC(C)(C)C(=O)/C=C/c1ccc(/C=C/C(=O)C(C)(C)CN(C)C)cc1 | – | 1.77 | – | 2.84 | – | 3.97 | – | 4.93 | – | 3.03 | – | 3.83 | – | 3.08 | – | 3.25 | – | 3.05 | – | 7.4
COC(=O)CCc1c[nH]c2ccc(N(CCCl)CCCl)cc12 | 2.3 µM | 44.7 | 0.383 | – | 5.95 µM | 30.1 | 1.53 | 41 | 4.82 µM | 66 | 5.21 | 34.3 | 0.856 | > 20.7 | 10.6 | 36.1 | 1.04 | 11.6 | 1.51 | > 100
CN[C@H]1C=C[C@@H]2/C=C(C)/C=C/[C@@H](C)[C@H]([C@H](C)[C@H](O)[C@@H](C)NC(C)=O)OC(=O)/C=C/C=C(C)\C=C\[C@]2(C)C1 | < 0.001 µM and 0.0049 µM | > 49 | 0.0146 | > 49 | 0.0808 µM and 0.0458 µM | 21.7 | 0.00743 | 10.3 | 0.0611 µM and 0.259 µM | > 49 | – | > 49 | 0.00836 | > 49 | 0.00963 | > 49 | 0.0049 | 6.08 | 0.0049 | > 49
FC(F)(F)c1nc2nc(Cl)c(Cl)nc2n1CCCN1CCOCC1 | – | > 100 | – | > 100 | – | > 100 | – | > 100 | – | > 100 | – | 64 | – | > 100 | – | > 100 | – | > 100 | – | > 100
OCc1ccc(-c2ccc(-c3ccc(CO)o3)[se]2)o1 | > 95 µM | > 100 | > 100 | > 100 | > 100 µM | > 100 | 0.3 | 1.55 | > 100 µM | > 100 | 1.49 | > 20.8 | > 100 | > 100 | > 74.3 | > 100 | 37 | > 100 | > 59.8 | > 100
CCOC(=O)c1sc(-c2ccc(OS(=O)(=O)c3ccc(Br)s3)c(C=O)c2)nc1C | 2.45 µM | 6.43 | 3.02 | 9.05 | 4.08 µM | 18.1 | 3.82 | 23.1 | 2.83 µM | 8.96 | 18.6 | 64.7 | 2.75 | 8.16 | 3.36 | 11.6 | 1.6 | 6.7 | 22.7 | > 100
CO[C@H]1/C=C/O[C@@]2(C)Oc3c(C)c(O)c4c(c3C2=O)C(=O)C(/C=N/N(c2ccccc2)c2ccccc2)=C(NC(=O)/C(C)=C\C=C\[C@H](C)[C@H](O)[C@@H](C)[C@@H](O)[C@@H](C)[C@H](OC(C)=O)[C@@H]1C)C4=O | 1.93 µM | 3.84 | 1.74 | 3.28 | 1.89 µM | 3.59 | 1.97 | 3.98 | 1.87 µM | 3.55 | 1.84 | 3.9 | 1.83 | 3.44 | 1.75 | 3.24 | 1.38 | 2.72 | 1.69 | 3.29
